Data reported in patent publication US11214803B2, “Modulators of YAP1 expression” (Ionis Pharmaceuticals, Inc., priority 2019, dated 2022).
pIC50: −log10 of the molar value. Where “and” joins values, the source holds several entries; their conditions need not be identical. Equal entries are not always repeated. Marks after values point to notes of the source that are not given here.

What was measured:
[1] = tested on: Yap1 mRNA; test: Dose-dependent inhibition of human Yap1 in A-431 cells (Example 8, 10,000 cells per well, RTS4814); assay type: cell-based; conditions: for % UTC (Yap1 mRNA) / pIC50: A-431 cells; for Yap1 mRNA, % UTC: A-431 cells, 10,000 cells per well
Outline: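 A-431 cells (10,000/well) dosed with modified oligonucleotides by free uptake; Yap1 mRNA measured ~48 h later with primer-probe set RTS4814, normalized to total RNA (RIBOGREEN). Values are % of untreated control; IC50 from linear regression on log/linear plot.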

[2] = rat, in vivo, sc, 50 mg/kg
Experimental: Male Sprague-Dawley rats were maintained on a 12-hour light/dark cycle and fed ad libitum with Purina normal rat chow. Groups of 4 Sprague-Dawley rats each were weekly injected subcutaneously with 50 mg/kg of Ionis oligonucleotide for 6 weeks (total 7 doses). Forty-eight hours after the last dose, the rats were euthanized; and organs, urine and plasma were harvested for further analysis.
To evaluate the effect of Ionis oligonucleotides on kidney function, urinary levels of total protein and creatinine were measured using an automated clinical chemistry analyzer (Hitachi Olympus AU400c, Melville, N.Y.).

[3] = Tolerability in CD-1 mice, body and organ weights (Example 18); assay type: in vivo; conditions: male CD-1 mice, 50 mg/kg s.c. twice a week (total of 9 treatments), end of study (day 34)
Experimental: Groups of four male CD-1 mice at 5-6 weeks of age (obtained from Charles River) were injected subcutaneously twice a week for four weeks (for a total of 9 treatments) with 50 mg/kg of modified oligonucleotides. One group of male CD-1 mice was injected with PBS. Mice were euthanized on day 34 post start of treatment (24 hours following the final administration).
Body weights of CD-1 mice were measured at the end of the study, and the average body weight for each group is presented in the table below. Modified oligonucleotides that caused any changes in organ weights outside the expected range for modified oligonucleotides were excluded from further studies.

[4] = tested on: SNU449 xenograft tumor; test: Tumor volume in SNU449 xenograft tumor model (first Example 30); assay type: in vivo, human; conditions: 50 mg/kg
Experimental: Modified oligonucleotides described in the studies above were tested in a hepatocellular carcinoma SNU449 xenograft tumor model. A control oligonucleotide 792169 was also tested.
Five million SNU449 cells in 30% matrigel were implanted subcutaneously into the fatpads of female NOD.Cg-Prkdcscid II2rgtmlWjl/SzJ mice (from Jackson Laboratory) at 4-6 weeks of age. 43 days post implantation (when tumors had reached approximately 100 mm^3 in size), groups of eight mice each were administered with 50 mg/kg modified oligonucleotide daily for 10 days (loading dose), following which they were administered with 50 mg/kg modified oligonucleotide four times a week for one week, following which they were dosed with 50 mg/kg modified oligonucleotide thrice weekly until the end of the study. Animals were sacrificed and tumors were collected on day 119 post implantation. Yap1 mRNA knockdown in tumors was measured by RT-qPCR as previously described using the Human Yap1 primer-probe set RTS4814. Yap1 mRNA levels were normalized to actin-beta content, as measured by primer probe set RTS5002. Results are presented in the tables below as percent control of the amount of Yap1 mRNA relative to PBS treated animals (% control).
Tumor volumes were also measured at the indicated days in the table below

[5] = tested on: SNU449 xenograft tumor; test: Tumor volume in SNU449 xenograft tumor model, alone and in combination with sorafenib (second Example 30); assay type: in vivo, human; conditions: SNU449 xenograft, oligonucleotide 50 mg/kg, sorafenib 30 mg/kg orally
Experimental: Modified oligonucleotides described in the studies above were tested in a hepatocellular carcinoma SNU449 xenograft tumor model. […] A control oligonucleotide 792169, described herein above, was also tested.
Five million SNU449 cells in 30% matrigel were implanted subcutaneously into the fatpads of female NOD.Cg-Prkdcscid II2rgtmlWjl/SzJ mice (from Jackson Laboratory) at 4-6 weeks of age. 43 days post implantation (when tumors had reached approximately 100 mm^3 in size), groups of eight mice each were administered with 50 mg/kg modified oligonucleotide daily for 10 days (loading dose), following which they were administered with 50 mg/kg modified oligonucleotide four times a week for one week, following which they were dosed with 50 mg/kg modified oligonucleotide thrice weekly until the end of the study. […] Animals were sacrificed, and tumors were collected on day 119 post implantation.
Tumor volumes were also measured at the indicated days in the table below.

[6] = day 101 post tumor implantation
[7] = day 105 post tumor implantation
[8] = day 108 post tumor implantation
[9] = day 119 post tumor implantation

Substance: 958499 (ATTAGAGTATGTGGCA; 3-10-3 cEt gapmer, further chemistry not given here) [compound 958499]
- % UTC (Yap1 mRNA) ([1]; 31.3 nM): 36 % UTC and 37 % UTC
- % UTC (Yap1 mRNA) ([1]; 125.0 nM): 5 % UTC and 4 % UTC
- % UTC (Yap1 mRNA) ([1]; 500.0 nM): 2 % UTC
- % UTC (Yap1 mRNA) ([1]; 2000.00 nM): 2 % UTC
- pIC50 ([1]; Yap1 mRNA): > 7.70
- URINE P/C ratio (total protein to creatinine ratio) [2]: 5
- Kidney weight [3]: 0.57 g
- Liver weight [3]: 2.20 g
- Spleen weight [3]: 0.22 g
- body weight [3]: 39 g

Substance: 1198440 (AAGTGTATGTCAGAAG; cEt, 2'-MOE, 5-methylcytosine, phosphorothioate modifications, further chemistry not given here) [compound 1198440]
- Average Tumor Volume ([4]; day 43 post tumor implantation): 111 mm^3
- Average Tumor Volume ([4]; day 46 post tumor implantation): 152 mm^3
- Average Tumor Volume ([4]; day 50 post tumor implantation): 168 mm^3
- Average Tumor Volume ([4]; day 53 post tumor implantation): 201 mm^3
- Average Tumor Volume ([4]; day 57 post tumor implantation): 242 mm^3
- Average Tumor Volume ([4]; day 60 post tumor implantation): 263 mm^3
- Average Tumor Volume ([4]; day 64 post tumor implantation): 338 mm^3
- Average Tumor Volume ([4]; day 67 post tumor implantation): 376 mm^3
- Average Tumor Volume ([4]; day 71 post tumor implantation): 373 mm^3
- Average Tumor Volume ([4]; day 75 post tumor implantation): 401 mm^3
- Average Tumor Volume ([4]; day 78 post tumor implantation): 429 mm^3
- Average Tumor Volume ([4]; day 81 post tumor implantation): 514 mm^3
- Average Tumor Volume ([4]; day 85 post tumor implantation): 606 mm^3
- Average Tumor Volume ([4]; day 88 post tumor implantation): 613 mm^3
- Average Tumor Volume ([4]; day 92 post tumor implantation): 690 mm^3
- Average Tumor Volume ([4]; day 94 post tumor implantation): 773 mm^3
- Average Tumor Volume ([4]; day 98 post tumor implantation): 804 mm^3
- Average Tumor Volume [4, 6]: 818 mm^3
- Average Tumor Volume [4, 7]: 894 mm^3
- Average Tumor Volume [4, 8]: 921 mm^3
- Average Tumor Volume [4, 9]: 978 mm^3
- Average Tumor Volume ([5]; day 43 post tumor implantation): 111 mm^3
- Average Tumor Volume ([5]; day 46 post tumor implantation): 152 mm^3
- Average Tumor Volume ([5]; day 50 post tumor implantation): 168 mm^3
- Average Tumor Volume ([5]; day 53 post tumor implantation): 201 mm^3
- Average Tumor Volume ([5]; day 57 post tumor implantation): 242 mm^3
- Average Tumor Volume ([5]; day 60 post tumor implantation): 263 mm^3
- Average Tumor Volume ([5]; day 64 post tumor implantation): 338 mm^3
- Average Tumor Volume ([5]; day 67 post tumor implantation): 376 mm^3
- Average Tumor Volume ([5]; day 71 post tumor implantation): 373 mm^3
- Average Tumor Volume ([5]; day 75 post tumor implantation): 401 mm^3
- Average Tumor Volume ([5]; day 78 post tumor implantation): 429 mm^3
- Average Tumor Volume ([5]; day 81 post tumor implantation): 514 mm^3
- Average Tumor Volume ([5]; day 85 post tumor implantation): 606 mm^3
- Average Tumor Volume ([5]; day 88 post tumor implantation): 613 mm^3
- Average Tumor Volume ([5]; day 92 post tumor implantation): 690 mm^3
- Average Tumor Volume ([5]; day 94 post tumor implantation): 773 mm^3
- Average Tumor Volume ([5]; day 98 post tumor implantation): 804 mm^3
- Average Tumor Volume [5, 6]: 818 mm^3
- Average Tumor Volume [5, 7]: 894 mm^3
- Average Tumor Volume [5, 8]: 921 mm^3
- Average Tumor Volume [5, 9]: 978 mm^3

Substance: CGCCGATAAGGTACAC (cEt gapmer, phosphorothioate backbone, further chemistry not given here) [ION 792169, reference compound]
- Average Tumor Volume ([4]; day 43 post tumor implantation): 111 mm^3
- Average Tumor Volume ([4]; day 46 post tumor implantation): 162 mm^3
- Average Tumor Volume ([4]; day 50 post tumor implantation): 180 mm^3
- Average Tumor Volume ([4]; day 53 post tumor implantation): 247 mm^3
- Average Tumor Volume ([4]; day 57 post tumor implantation): 280 mm^3
- Average Tumor Volume ([4]; day 60 post tumor implantation): 317 mm^3
- Average Tumor Volume ([4]; day 64 post tumor implantation): 397 mm^3
- Average Tumor Volume ([4]; day 67 post tumor implantation): 466 mm^3
- Average Tumor Volume ([4]; day 71 post tumor implantation): 519 mm^3
- Average Tumor Volume ([4]; day 75 post tumor implantation): 559 mm^3
- Average Tumor Volume ([4]; day 78 post tumor implantation): 634 mm^3
- Average Tumor Volume ([4]; day 81 post tumor implantation): 681 mm^3
- Average Tumor Volume ([4]; day 85 post tumor implantation): 785 mm^3
- Average Tumor Volume ([4]; day 88 post tumor implantation): 889 mm^3
- Average Tumor Volume ([4]; day 92 post tumor implantation): 1170 mm^3
- Average Tumor Volume ([4]; day 94 post tumor implantation): 1215 mm^3
- Average Tumor Volume ([4]; day 98 post tumor implantation): 1355 mm^3
- Average Tumor Volume [4, 6]: 1417 mm^3
- Average Tumor Volume [4, 7]: 1509 mm^3
- Average Tumor Volume [4, 8]: 1571 mm^3
- Average Tumor Volume [4, 9]: 1697* mm^3
- Average Tumor Volume ([5]; day 43 post tumor implantation): 111 mm^3
- Average Tumor Volume ([5]; day 46 post tumor implantation): 162 mm^3
- Average Tumor Volume ([5]; day 50 post tumor implantation): 180 mm^3
- Average Tumor Volume ([5]; day 53 post tumor implantation): 247 mm^3
- Average Tumor Volume ([5]; day 57 post tumor implantation): 280 mm^3
- Average Tumor Volume ([5]; day 60 post tumor implantation): 317 mm^3
- Average Tumor Volume ([5]; day 64 post tumor implantation): 397 mm^3
- Average Tumor Volume ([5]; day 67 post tumor implantation): 466 mm^3
- Average Tumor Volume ([5]; day 71 post tumor implantation): 519 mm^3
- Average Tumor Volume ([5]; day 75 post tumor implantation): 559 mm^3
- Average Tumor Volume ([5]; day 78 post tumor implantation): 634 mm^3
- Average Tumor Volume ([5]; day 81 post tumor implantation): 681 mm^3
- Average Tumor Volume ([5]; day 85 post tumor implantation): 785 mm^3
- Average Tumor Volume ([5]; day 88 post tumor implantation): 889 mm^3
- Average Tumor Volume ([5]; day 92 post tumor implantation): 1170 mm^3
- Average Tumor Volume ([5]; day 94 post tumor implantation): 1215 mm^3
- Average Tumor Volume ([5]; day 98 post tumor implantation): 1355 mm^3
- Average Tumor Volume [5, 6]: 1417 mm^3
- Average Tumor Volume [5, 7]: 1509 mm^3
- Average Tumor Volume [5, 8]: 1571 mm^3
- Average Tumor Volume [5, 9]: 1697* mm^3

Substance: 1076453 (GTAATATTGCAATCTG; 3-10-3 cEt gapmer, further chemistry not given here) [compound 1076453]
- Yap1 mRNA, % UTC ([1]; 31.3 nM, free uptake, approximately 48 hours, RTS4814): 11 % UTC
- Yap1 mRNA, % UTC ([1]; 125.0 nM, free uptake, approximately 48 hours, RTS4814): 2 % UTC
- Yap1 mRNA, % UTC ([1]; 500.0 nM, free uptake, approximately 48 hours, RTS4814): 1 % UTC
- Yap1 mRNA, % UTC ([1]; 2000.00 nM, free uptake, approximately 48 hours, RTS4814): 2 % UTC
- pIC50 ([1]; free uptake, approximately 48 hours, RTS4814, linear regression on log/linear plot): > 7.70
- URINE P/C ratio (total protein to creatinine ratio) [2]: 5
- Kidney weight [3]: 0.56 g
- Liver weight [3]: 1.91 g
- Spleen weight [3]: 0.20 g
- body weight [3]: 38 g
